Measurements published in patent EP4772497A1, “POLYMORPHS OF NITROGEN-CONTAINING HETEROCYCLIC COMPOUNDS, AND USES THEREOF” (BNH Research Co., Ltd., priority 2023, dated 2025).

Columns and labels:
[1] = Compression simulation experiment (XRPD); format: physicochemical; details: compressed for 5 minutes at 2 MPa, 5 MPa, and 10 MPa
Protocol: About 5 mg of crystalline form C was compressed for 5 minutes at 2 MPa, 5 MPa, and 10 MPa using a hydraulic press. Potential changes in form and crystallinity were evaluated by XRPD.
The XRPD results of the compression simulation experiments are shown in Fig. 10, where CSE1, CSE2, and CSE3 represent experiment IDs for pressures of 2 MPa, 5 MPa, and 10 MPa, respectively.

[2] = Dry grinding simulation experiment (XRPD); format: physicochemical; details: manually ground for 1, 3, and 5 minutes, mortar and pestle
Protocol: About 5 mg of crystalline form C was manually ground for 1, 3, and 5 minutes using a mortar and pestle. Potential changes in form and crystallinity were evaluated by XRPD.
The XRPD results of the dry grinding simulation experiments are shown in Fig. 11, where GSE1, GSE2, and GSE3 represent experiment IDs for grinding for 1 minute, 3 minutes, and 5 minutes, respectively.

APP/PS1 mice = assay: TC synaptic potency and GABA/AMPA ratio in the sensory cerebral cortex after dosing; format: in vivo; details: form C 1 mg/kg orally, aducanumab 5 mg/kg i.v.
Protocol: Using APP/PS1 mice (15 months old, Taconic Biosciences), an animal model of Alzheimer's disease, the efficacy of crystalline form C and aducanumab (Creative Biolabs) was evaluated when administered alone or in combination, respectively. A control group and four experimental groups were prepared as follows (see Table 14).
For the control antibody, an isotype antibody was administered intravenously, and for the vehicle, 200 µL of a mixed solution of DMSO (10):PEG400 (44):saline (55) was administered orally. Five mice were used for each treatment group.
Aducanumab was administered at a dose of 5 mg/kg, and the control antibody, which is an inactivated form of aducanumab, was administered at a dose of 5 mg/kg. For the intravenous administration, a total of four injections were administered into the tail vein on the starting day of the experiment and at one-week intervals thereafter.
For oral administration, 1 mg/kg of the compound of the present disclosure (crystalline form C, BnH-015B) or a vehicle was administered orally once daily for about 11 to 13 days, starting about 2 weeks after the initiation of the experiment.
Meanwhile, the efficacy of the compound against Alzheimer's disease was evaluated by measuring the potency and the GABA/AMPA ratio in the sensory cerebral cortex. […]

[3] = Hygroscopicity by dynamic vapor sorption (DVS); format: physicochemical
Protocol: Instrument model: SMS DVS Advantage Dynamic Vapor Sorption System Test method: A sample (10 to 15 mg) is taken and placed on a DVS sample pan, and measurement is performed. Detailed DVS parameters are as follows. Temperature: 25°C Equilibrium dm/dt = 0.002%/min: (minimum: 60 min, maximum: 240 min) Relative humidity (RH (%)) measurement gradient: 10% Relative Humidity (RH (%)) measurement gradient cycle: 40-0-95-0-40% The following description provides the criteria for determining hygroscopicity: [Table 6]
The moisture adsorption and desorption behavior of crystalline form C was investigated by the DVS test of Experimental Method 5. XRPD was performed to confirm any change in form after the DVS test.

IL-33 = assay: Mouse proteome profiling array analysis of somatosensory cortex homogenates; format: in vivo; details: APP/PS1 mice, 1 mg/kg orally for 14 days, cerebral cortex, vs vehicle-treated control group
Protocol: (§1) To evaluate the efficacy of crystalline form C of the present disclosure in inhibiting amyloid-beta protein accumulation, mouse proteomic profiling array analysis and Bielschowsky silver staining were performed. 15-week-old APP/PS1 mice were used in the experiment, and crystalline form C of the present disclosure (1 mg/kg of BnH-015B) or a vehicle was administered orally.
(§2) Relative levels of mouse cytokines, chemokines, and growth factors were determined using a membrane-based antibody array kit (Proteome Profiler Mouse XL Cytokine Array Kit, ARY028 R&D Systems, Inc., Minneapolis, USA) which features 111 capture antibodies coated in duplicate on a nitrocellulose membrane. Homogenates of the somatosensory cortex of APP/PS1 mice were prepared and tested according to the manufacturer's instructions. The array was detected using an X-ray film (Super RX, Fujifilm, Tokyo, Japan), and the film was read using an Epson scanner (L655 series, Epson, Suwa, Japan), followed by image analysis using ImageJ with the Protein Array Analyzer Macro (National Institutes of Health, Bethesda, MD, USA). […]
(§3) Statistical analysis was performed using GraphPad Prism 9.5.0 software (San Diego, CA, USA). […] All data are expressed as mean ± SEM.

OPN = assay: as above; format: in vivo; details: APP/PS1 mice, 1 mg/kg orally for 14 days, cerebral cortex, vs vehicle-treated control group
Protocol: as §1, §2, §3

Classification of hygroscopicity ([3]; DVS, 25°C): non-hygroscopic
Weight change (%) in 1st adsorption ([3]; Relative humidity 0% at 25°C): 0%
Weight change (%) in 1st desorption ([3]; Relative humidity 0% at 25°C): 0%
Weight change (%) in 2nd adsorption ([3]; Relative humidity 0% at 25°C): 0%
Weight change (%) in 2nd desorption ([3]; Relative humidity 0% at 25°C): 0%
Weight change (%) in 1st adsorption ([3]; Relative humidity 10% at 25°C): 0%
Weight change (%) in 1st desorption ([3]; Relative humidity 10% at 25°C): 0%
Weight change (%) in 2nd adsorption ([3]; Relative humidity 10% at 25°C): 0%
Weight change (%) in 2nd desorption ([3]; Relative humidity 10% at 25°C): 0%
Weight change (%) in 1st adsorption ([3]; Relative humidity 20% at 25°C): 0%
Weight change (%) in 1st desorption ([3]; Relative humidity 20% at 25°C): 0%
Weight change (%) in 2nd adsorption ([3]; Relative humidity 20% at 25°C): 0%
Weight change (%) in 2nd desorption ([3]; Relative humidity 20% at 25°C): 0%
Weight change (%) in 1st adsorption ([3]; Relative humidity 30% at 25°C): 0%
Weight change (%) in 1st desorption ([3]; Relative humidity 30% at 25°C): 0%
Weight change (%) in 2nd adsorption ([3]; Relative humidity 30% at 25°C): 0%
Weight change (%) in 2nd desorption ([3]; Relative humidity 30% at 25°C): 0%
Weight change (%) in 1st adsorption ([3]; Relative humidity 40% at 25°C): 0%
Weight change (%) in 1st desorption ([3]; Relative humidity 40% at 25°C): 0%
Weight change (%) in 2nd adsorption ([3]; Relative humidity 40% at 25°C): 0%
Weight change (%) in 2nd desorption ([3]; Relative humidity 40% at 25°C): 0.1%
Weight change (%) in 1st adsorption ([3]; Relative humidity 50% at 25°C): 0.1%
Weight change (%) in 2nd desorption ([3]; Relative humidity 50% at 25°C): 0.1%
Weight change (%) in 1st adsorption ([3]; Relative humidity 60% at 25°C): 0.1%
Weight change (%) in 2nd desorption ([3]; Relative humidity 60% at 25°C): 0.1%
Weight change (%) in 1st adsorption ([3]; Relative humidity 70% at 25°C): 0.1%
Weight change (%) in 2nd desorption ([3]; Relative humidity 70% at 25°C): 0.1%
Weight change (%) in 1st adsorption ([3]; Relative humidity 80% at 25°C): 0.1%
Weight change (%) in 2nd desorption ([3]; Relative humidity 80% at 25°C): 0.1%
Weight change (%) in 1st adsorption ([3]; Relative humidity 90% at 25°C): 0.1%
Weight change (%) in 2nd desorption ([3]; Relative humidity 90% at 25°C): 0.1%
Weight change (%) in 1st adsorption ([3]; Relative humidity 95% at 25°C): 0.1%
Weight change (%) in 2nd desorption ([3]; Relative humidity 95% at 25°C): 0.1%
crystalline form after the DVS test (XRPD) ([3]; sample obtained after the DVS test): still exhibits crystalline pattern C
moisture uptake ([3]; up to 95% RH, 25°C): less than 0.2%
SMILES: C[C@@H]1CC[C@H](C(=O)O)CN1C(=O)Cc1ccc(F)cc1Cl [Crystalline form C, (3S,6R)-1-(2-(2-chloro-4-fluorophenyl)acetyl)-6-methylpiperidine-3-carboxylic acid]
change in form and crystallinity on compression [1]: without any change in form or apparent decrease in crystallinity
change in form and crystallinity on grinding [2]: no change in form, but its crystallinity decreased significantly
balance of excitation/inhibition (GABA/AMPA ratio) (APP/PS1 mice): maintaining the balance of excitation/inhibition
excitatory TC synaptic potency (TC potency) (APP/PS1 mice): increased excitatory TC synaptic potency
expression level of IL-33 (IL-33): significantly increased
OPN expression (OPN): suppressed
